Measurements from article PMC12593396 (2025).

Legend:
[1] = tested on: DS-21 (CD) (DNA, duplex) CCTTCACGCGAACGTAATCCT/AGGATTACGTTCGCGTGAAGG; experiment: CD; conditions: 1 equivalent compound
[2] = tested on: 3WJ-T6 (DNA, junction) ACTCTTCTCGTTTTTTCGAGAGCGACTTTTTTGTCGCAGAGT; experiment: ITC; conditions: 100 mM NaCl, 10 mM sodium cacodylate, pH 7.4, 25 °C, at ITC detection limit
[3] = tested on: Cy5–3WJ-T3 (DNA, junction) CGGAACGGCACTCGTTTCGAGTGCAGCGTGGTTTCCACGCTCGTTCCG; experiment: MST; conditions: 100 mM NaCl, 10 mM Na cacodylate
[4] = tested on: FAM–4WJ (DNA, junction) GCCTAGCATGATACTGCTACCG/CGGTAGCAGTACCGTTGGTGGC/GCCACCAACGGCGTCAACTGCC/GGCAGTTGACGTCATGCTAGGC; experiment: MST; conditions: 100 mM NaCl; 10 mM Na cacodylate; not saturated, highest 100 μM
[5] = tested on: DS-21 (MST) (DNA, duplex) CCTTCACGCGAACGTAATCCT/AGGATTACGTTCGCGTGAAGG; experiment: MST; conditions: highest tested 50 μM; authors suggest Kd at best high micromolar
[6] = tested on: 4WJ (DNA, junction) GCCTAGCATGATACTGCTACCG/CGGTAGCAGTACCGTTGGTGGC/GCCACCAACGGCGTCAACTGCC/GGCAGTTGACGTCATGCTAGGC; experiment: UV melting; conditions: 100 mM NaCl; 10 mM Na cacodylate; 1 equivalent compound
[7] = tested on: Y-fork (DNA, junction) CGGTAGCAGTACCGTTGGTGGC/GCCACCAACGGCGTCAACTGCC; experiment: PAGE competition; conditions: competes with 3WJ-FAM; ~22% decrease of 3WJ at 4 equivalents

| SMILES | binding [1] | Kd ([2]; 0.5% acetonitrile) | Kd ([3]; 0.1% Tween, 25 °C, 20 nM DNA) | Kd [4] [µM] | binding [5] | ΔTm [6] [°C] | binding [7] | Kd [2] | Kd ([3]; 0.1% Tween-20, 25 °C, 1 nM DNA) |
| --- | --- | --- | --- | --- | --- | --- | --- | --- | --- |
| [Pt+2].[Pt+2].c1cncc(Oc2ccc(Oc3cccnc3)cc2)c1.c1cncc(Oc2ccc(Oc3cccnc3)cc2)c1.c1cncc(Oc2ccc(Oc3cccnc3)cc2)c1.c1cncc(Oc2ccc(Oc3cccnc3)cc2)c1 | weak | 9.94 ± 4.36 × 10^–9 M | 1.22 ± 0.22 × 10^–8 M | > 4 | no | 6.0 ± 1.1 | weak |  |  |
| C(=Nc1ccc(Cc2ccc(N=Cc3ccccn3)cc2)cc1)c1ccccn1.C(=Nc1ccc(Cc2ccc(N=Cc3ccccn3)cc2)cc1)c1ccccn1.C(=Nc1ccc(Cc2ccc(N=Cc3ccccn3)cc2)cc1)c1ccccn1.[Ni+2].[Ni+2] |  |  |  |  |  | 8.8 ± 1.0 |  | 7.17 ± 0.51 × 10^–9 M | 5.15 ± 0.67 × 10^–10 M |
